# Where two headings read alike, the source gives them in different places.
# Legend:
# [1] = molecular target: T1, S. aureus NorA efflux pump (SA-1199B strain, overexpresses the norA gene) (Staphylococcus aureus, UniProt P0A0J7); test: EtBr efflux inhibition assay; assay type: cell-based; settings: for inhibition at 50 µM: read-out: EtBr efflux inhibition (%), compound at 50 µM, SA-1199B
# T1 construct: endogenous in cells; host or cells: S. aureus SA-1199B (overexpresses norA; isogenic parent SA-1199)
# Protocol: EtBr efflux inhibition assays were conducted using the S. aureus SA‐1199B strain, which overexpresses the norA gene and has an A116E GrlA substitution. Each compound was tested at 50 µM (see Figure 2). The starting hit compound 1 was used as the internal standard for comparison with the previously reported data.
# The cells were grown overnight in cation‐supplemented Mueller–Hinton broth (CAMHB) without any additives at 35°C. The organisms were subsequently diluted into CAMHB to obtain an optical density at 600 nm (OD600) of 0.7–0.8. Subsequently, the cells were pelleted and resuspended at an OD600 of 0.8 in 0.5 mL aliquots of CAMHB containing EtBr and carbonyl cyanide m‐chlorophenylhydrazone (CCCP) to “load” the cells with EtBr (final concentrations of 25 μM for EtBr and 100 μM for CCCP). Following 20 min of incubation at room temperature, the cells were pelleted and resuspended in 1 mL of fresh CAMHB. Immediately thereafter, 200 μL aliquots were transferred into the wells of white 96‐well plates, which either lacked or contained 50 or 10 μM of each test compound. Fluorescence was monitored continuously using a microplate reader (Infinite M200 Pro, TECAN) at excitation and emission wavelengths of 485 and 645 nm, respectively, for a period of 5 min. The experiments were conducted in triplicate, with two technical replicates per biological replicate. The efflux activity of the SA‐1199B strain was expressed as a percentage of fluorescence decrease over a 5‐min time course. The inhibition of this efflux by the test compounds was determined using the following equation: ([efflux in the absence] ‐ [efflux in the presence of test [compound])/[efflux in the absence of test compound] × 100, which yielded the percent efflux inhibition observed.
# ^a Experiments were performed in triplicate with two technical replicates per biological replicate. Efflux activity of SA-1199B was expressed as percent fluorescence decrease over a 5 min time course. Inhibition of this efflux by test compounds was determined using the equation [efflux in the absence] − [efflux in the presence of test [compound]/[efflux in the absence of test compound] × 100, giving the percent efflux inhibition observed.
# [2] = system: Staphylococcus aureus SA-1199B; test: MIC determination (broth microdilution) against SA-1199B; assay type: cell-based; settings: SA1199B
# Source text: (§1) In this study, the S. aureus strains SA‐1199B (overexpressing norA) and its isogenic parent SA‐1199 (wild type), the pair SA‐K1902 (norA‐depleted) and SA‐K2378 (complemented with a pCU1 plasmid harboring the norA promoting and coding region from SA‐1199B), were used to test EPI activity as described in a previous study. Furthermore, the S. aureus ATCC 29213 was used as the reference strain in MIC determination experiments.
# [3] = system: Staphylococcus aureus SA-1199B; assay type: cell-based
# Source text: For purposes of comparison, compound 1 was included as a reference.
# [4] = system: S. aureus SA-1199 (wild type); test: MIC determination against wild-type SA-1199; assay type: cell-based; settings: Staphylococcus aureus, compound alone
# Source text: (§2) This finding aligns with their mechanism of action, which involves the inhibition of NorA, which is only basally expressed in the wild‐type SA‐1199 strain.
# [5] = system: S. aureus SA-1199 (wild type); test: Synergistic assay with CPX against wild-type SA-1199; assay type: cell-based, Staphylococcus aureus; settings: EPI at 3.13 µg/mL with CPX
# Source text: as §2
# [6] = system: S. aureus SA-K1902 (norA-); test: Checkerboard assay EPI/CPX against SA-K1902; assay type: cell-based, Staphylococcus aureus
# Protocol: Checkerboard assays were carried out using SA‐K1902 and SA‐K2378 strains according to standard procedures.
# [7] = system: S. aureus SA-K2378 (norA ++); test: MIC evaluation against SA-K2378; assay type: cell-based, Staphylococcus aureus; settings: Staphylococcus aureus
# Source text: Conversely, interesting results were obtained against SA‐K2378, which overexpresses the norA gene (Table 2). […] This corroborates the hypothesis that their activity is strictly related to NorA EP inhibition.
# as §1
# [8] = system: Staphylococcus aureus SA-K2378 biofilm; assay type: cell-based; settings: for Biofilm formation (%): CPX 1/4 X MIC + EPI 1,6 µg/ml; for reduction in biofilm formation: EPI at 1.6 µg/mL with CPX at ½ MIC, vs untreated control
# Source text: The formation of biofilms is a significant contributor to the development of AMR [1, 26, 27]. This is due to the fact that biofilms provide a protective environment for bacteria, thereby rendering them more resilient to the effects of common antibacterial agents. Over the years, several investigations have been conducted to study the role of EPs in the various stages of microbial biofilm formation. However, a definitive answer regarding the potential role of EPs in this microbial pathway remains elusive. While some studies have reported a negative effect of certain EPs on biofilm formation, others have highlighted the promising role of EPIs in limiting biofilm formation and enhancing the efficacy of antibiotics under biofilm conditions.
# The biofilm production by SA‐K1902 and SA‐K2378 strains was analyzed in flat 96‐well microtiter plates as previously described, with some modifications. […] The microplates were incubated at 37°C for 24 h in static conditions. After incubation, the biofilms were washed three times with distilled water, dried at 60°C for 1 h, and stained with 0,1% crystal violet for 10 min. After staining, the crystal violet was removed and the wells were washed three times with water, dried at 37°C for 30 min, and the bound crystal violet was solubilized with 96% ethanol in shaking conditions. At the end of the destaining, the absorbance (570 nm) of the solutions in each well was measured using the FLUOstar Omega plate reader (BMG‐LABTECH, Germany) to quantify the biofilm produced in each condition compared with the control (biofilm produced by the strain without any compound/antibiotic). Biofilm assays were performed in triplicate for each condition.
# [9] = MTT cytotoxicity assay on MCF7; assay type: cell-based; settings: human, MCF7 cells; for viability at 72 h, 12.5 µg/mL: MCF7, 12.5 μg/mL; for viability at 72 h, 12.5 µg/mL / viability at 72 h, 25 µg/mL / viability at 72 h, 50 µg/mL / viability at 72 h, 100 µg/mL: read-out: Cytotoxicity (% cell viability); for viability at 72 h, 25 µg/mL: MCF7, 25 μg/mL; for viability at 72 h, 50 µg/mL: MCF7, 50 μg/mL; for viability at 72 h, 100 µg/mL: MCF7, 100 μg/mL; for CC50 at 72 h: MCF7, MTT
# Protocol: The MTT assay was performed on two human ATCC cell lines, that is, […] (CCL‐185) and MCF7 (HTB‐22), to test the potential cytotoxic effect of the compounds, after 72 h exposure, as previously described. Each compound was tested at concentrations ranging from 12.5 to 100 μg/mL. Untreated cells were considered as controls. The percentage of viable cells was calculated as follows: % Cell viability = 100 × treated well absorbance/untreated control well absorbance. All assays were performed once in technical quadruplicate.
# T1 sequence (P0A0J7 whole entry): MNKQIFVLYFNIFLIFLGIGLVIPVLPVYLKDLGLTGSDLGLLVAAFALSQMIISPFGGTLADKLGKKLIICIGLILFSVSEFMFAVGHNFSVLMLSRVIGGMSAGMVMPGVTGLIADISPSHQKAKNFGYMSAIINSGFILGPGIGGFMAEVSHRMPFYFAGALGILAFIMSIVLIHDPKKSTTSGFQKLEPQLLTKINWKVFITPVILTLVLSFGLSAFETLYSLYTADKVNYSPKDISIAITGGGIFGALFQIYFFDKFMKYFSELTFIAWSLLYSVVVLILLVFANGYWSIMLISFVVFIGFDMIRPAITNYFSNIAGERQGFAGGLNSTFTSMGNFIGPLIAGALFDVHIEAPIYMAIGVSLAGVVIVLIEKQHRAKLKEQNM
Structure (SMILES),inhibition at 50 µM [1] [%],MIC [2] [µg/mL],MIC [4] [µg/mL],synergistic effect with CPX [5],CPX MIC ([6]; EPI at 0.2 µg/mL) [µg/mL],N° CPX MIC reduction ([6]; EPI at 0.2 µg/mL),CPX MIC ([6]; EPI at 0.4 µg/mL) [µg/mL],N° CPX MIC reduction ([6]; EPI at 0.4 µg/mL),CPX MIC ([6]; EPI at 0.8 µg/mL) [µg/mL],N° CPX MIC reduction ([6]; EPI at 0.8 µg/mL),CPX MIC ([6]; EPI at 1.6 µg/mL) [µg/mL],N° CPX MIC reduction ([6]; EPI at 1.6 µg/mL),CPX MIC ([6]; EPI at 3.13 µg/mL) [µg/mL],N° CPX MIC reduction ([6]; EPI at 3.13 µg/mL),MIC [7] [µg/mL],Biofilm formation (%) [8],reduction in biofilm formation [8] [%],"viability at 72 h, 12.5 µg/mL [9] [%]","viability at 72 h, 25 µg/mL [9] [%]","viability at 72 h, 50 µg/mL [9] [%]",also measured
O=S1(=O)Nc2c(-c3ccc(Cl)cc3)nn(-c3ccccc3)c2-c2ccccc21 [Compound 3],7,25,> 50,did not show any synergistic effect,0.08,2,0.08,2,0.08,2,0.08,2,0.08,2,25,positive synergistic effect,83,97 ± 10,84 ± 4,88 ± 4,"N° fold CPX MIC reduction ([3]; EPI at 3.12 µg/mL): 2 fold; CPX MIC ([6]; EPI at 6.25 µg/mL): 0.08 µg/mL; N° CPX MIC reduction ([6]; EPI at 6.25 µg/mL): 2; CPX MIC ([6]; EPI at 12.5 µg/mL): 0.08 µg/mL; N° CPX MIC reduction ([6]; EPI at 12.5 µg/mL): 2; viability at 72 h, 100 µg/mL [9]: 66 ± 7%; CC50 at 72 h [9]: > 100 µg/mL"
"CN1c2c(-c3ccc(Cl)cc3)n[nH]c2-c2ccccc2S1(=O)=O [Compound 10, 3‐(4‐Chlorophenyl)‐4‐methyl‐1,4‐dihydropyrazolo[4,3‐c][1,2]benzothiazine 5,5‐dioxide]",100,> 50,> 50,did not show any synergistic effect,0.08,2,0.08,2,0.08,2,0.08,2,0.08,2,12.5,untreated control‐like condition,54,66 ± 5,26 ± 2,7 ± 1,"inhibition at 10 µM ([1]; read-out: EtBr efflux inhibition (%), compound at 10 µM, SA-1199B): 95%; N° fold CPX MIC reduction ([3]; EPI at 12.5 µg/mL): 4 fold; viability at 72 h, 100 µg/mL [9]: 6%; CC50 at 72 h [9]: ~25 µg/mL"

# Reference: article PMC12089509, “NorA Efflux Pump Inhibitors: Expanding SAR Knowledge of Pyrazolo[4,3‐c][1,2]benzothiazine 5,5‐Dioxide Derivatives” (Archiv Der Pharmazie, 2025)
